{
  "source": "patent US8436004B2",
  "about": "“Bicycloaniline derivative” (MSD K.K., priority 2007, dated 2013)",
  "system": "Human colon cancer cells WiDr",
  "test": "Tumor growth inhibitory effect, WiDr subcutaneous xenograft in nude rats",
  "type": "in vivo, F344/N Jcl-rnu nude rats",
  "protocol": "Pharmacological Test 4 (Tumor Growth Inhibitory Effect)\nHuman colon cancer cells WiDr (obtained from ATCC) were implanted into the subcutaneous area of the back of F344/N Jcl-rnu nude rats. 12 days after the implantation, 5 mg/kg of gemcitabine (Gemzar, from Eli Lily) was intravenously administered to them; and after 24 hours, a test compound suspended in a solvent (0.5% methyl cellulose) was orally administered thereto. This was repeated once a week for 3 weeks. The tumor volume (0.5×major diameter×(minor diameter)^2) was measured on days 0, 3, 6, 10, 13, 17, 20, 24 and 27 (the first gemcitabine administration is on day 0). The relative tumor volume was calculated, based on the tumor volume on day 0, as 1. The tumor growth rate (% T/C) was obtained according to the formulae mentioned below.\nIn case where the tumor volume change from day 0 in the test compound administration group is more than 0 (>0): % T/C=(tumor volume change in the test compound group on days 3, 6, 10, 13, 17, 20, 24 and 27/tumor volume change in the control group on days 3, 6, 10, 13, 17, 20, 24 and 27)×100. In case where the tumor volume change from day 0 in the test compound administration group is less than 0 (<0): % T/C=(tumor volume change in the test compound group on days 3, 6, 10, 13, 17, 20, 24 and 27/tumor volume […] in the test compound group on day 0)×100.\nGemcitabine was administered on days 0, 7 and 14. The compound of Example 1 was administered on days 1, 8 and 15.",
  "data": [
    {"smiles": "Nc1ccn([C@@H]2O[C@H](CO)[C@@H](O)C2(F)F)c(=O)n1", "note": "[Gemcitabine, gemcitabine]", "values": [
      {"measurement": "% T/C day 3", "setting": "day 3, gemcitabine 5 mg/kg i.v. days 0, 7, 14, Example 1 15 mg/kg oral days 1, 8, 15, n=5", "result": 62, "unit": "%"},
      {"measurement": "% T/C day 6", "setting": "day 6, gemcitabine 5 mg/kg i.v. days 0, 7, 14, Example 1 15 mg/kg oral days 1, 8, 15, n=5", "result": 67, "unit": "%"},
      {"measurement": "% T/C day 10", "setting": "day 10, gemcitabine 5 mg/kg i.v. days 0, 7, 14, Example 1 15 mg/kg oral days 1, 8, 15, n=5", "result": 66, "unit": "%"},
      {"measurement": "% T/C day 13", "setting": "day 13, gemcitabine 5 mg/kg i.v. days 0, 7, 14, Example 1 15 mg/kg oral days 1, 8, 15, n=5", "result": 64, "unit": "%"},
      {"measurement": "% T/C day 17", "setting": "day 17, gemcitabine 5 mg/kg i.v. days 0, 7, 14, Example 1 15 mg/kg oral days 1, 8, 15, n=5", "result": 57, "unit": "%"},
      {"measurement": "% T/C day 20", "setting": "day 20, gemcitabine 5 mg/kg i.v. days 0, 7, 14, Example 1 15 mg/kg oral days 1, 8, 15, n=5", "result": 49, "unit": "%"},
      {"measurement": "% T/C day 24", "setting": "day 24, gemcitabine 5 mg/kg i.v. days 0, 7, 14, Example 1 15 mg/kg oral days 1, 8, 15, n=5", "result": 52, "unit": "%"},
      {"measurement": "% T/C day 27", "setting": "day 27, gemcitabine 5 mg/kg i.v. days 0, 7, 14, Example 1 15 mg/kg oral days 1, 8, 15, n=5", "result": 54, "unit": "%"},
      {"measurement": "tumor growth rate, result in words", "setting": "summary of Table 5", "result": "reduced the tumor growth rate"}
    ]}
  ]
}
